Laboratory results: patent US20080153872A1, “Bis-(Coumarin) Compounds With Anti-Inflammatory Activity” (priority 2005, published 2008)

Assays:
human 5-LO = target: T1, human 5-LO (Homo sapiens, UniProt P09917); experiment: Human 5-Lipoxygenase, 5-LO, assay in peripheral mononuclear blood cells; type: cell-based; conditions: 10 μM concentration, LTB4 readout
T1 construct: Human peripheral mononuclear blood cells were isolated using Ficoll density separation; endogenous in cells; host or cells: human peripheral blood mononuclear cells
T1 sequence (P09917 1-674): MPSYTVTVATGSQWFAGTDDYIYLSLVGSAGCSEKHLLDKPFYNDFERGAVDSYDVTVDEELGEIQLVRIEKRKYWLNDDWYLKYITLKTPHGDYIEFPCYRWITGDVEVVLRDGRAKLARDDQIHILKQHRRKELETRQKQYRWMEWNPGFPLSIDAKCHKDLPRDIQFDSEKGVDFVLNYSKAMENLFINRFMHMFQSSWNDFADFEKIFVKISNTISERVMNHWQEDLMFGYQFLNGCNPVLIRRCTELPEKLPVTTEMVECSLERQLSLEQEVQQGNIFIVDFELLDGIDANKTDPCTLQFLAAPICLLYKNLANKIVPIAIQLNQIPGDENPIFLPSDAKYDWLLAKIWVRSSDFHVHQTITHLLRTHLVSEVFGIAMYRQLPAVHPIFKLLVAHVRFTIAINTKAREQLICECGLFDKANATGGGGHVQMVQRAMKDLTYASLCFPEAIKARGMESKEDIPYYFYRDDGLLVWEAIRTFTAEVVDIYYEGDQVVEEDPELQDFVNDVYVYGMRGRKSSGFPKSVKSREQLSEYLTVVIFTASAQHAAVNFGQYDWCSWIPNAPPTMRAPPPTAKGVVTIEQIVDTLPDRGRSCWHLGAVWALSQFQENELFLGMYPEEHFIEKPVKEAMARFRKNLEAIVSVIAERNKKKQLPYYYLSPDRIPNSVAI
Method: (§1) All compounds were dissolved in dimethyl sulfoxide (DMSO). Final concentration of the DMSO in all tests was 1% (v/v). Inhibition in all tests is considered preferred if it exceeds 50% at 10 μM concentration (or less).
Human peripheral mononuclear blood cells were isolated using Ficoll density separation. Cells were incubated in Hanks Balanced Salt Solution (HBSS) with compounds for 15 minutes at 37° C. Substrate (arachidonic acid) was added in 20 μM final concentration and cells were incubated for another 15 minutes. LTB4 as a final product of arachidonic acid metabolism was measured using competitive enzyme immunoassay (See, e.g., Safayhi, H. et al. Planta Medica 2000, 66, 110-113) and percentage of inhibition was calculated from the levels of LTB4 in cell supernatant.

human PDE3 = target: T2, human PDE3 (Homo sapiens, UniProt Q14432); experiment: Human PDE3 assay (platelets); type: biochemical; conditions: 10 μM concentration
T2 construct: Isolated human platelets are pre-incubated at 25° C; from tissue; host or cells: human platelets
Method: as §1
(§2) PDE3 assay. Isolated human platelets are pre-incubated at 25° C. in Tris-HCl buffer containing magnesium ions for 15 minutes. 1.01 μM tritium labeled cyclic adenosine monophosphate (cAMP) is added as substrate, followed by incubation at 25° C. for 20 minutes. Percentage of inhibition is calculated by comparing the adenosine levels in supernatant which is formed from cAMP in treated versus control cells.

human PDE4 = experiment: Human PDE4 assay (U937); type: biochemical; conditions: 10 μM concentration
Method: as §1
as §2, with “PDE4” for “PDE3”, “PDE is implicated in diseases such as chronic obstructive pulmonary disease and neutrophilia. Human monocytic leukemia cell line U937 is” for “Isolated human platelets are”

TxA2 receptor = target: T3, TxA2 receptor (Homo sapiens, UniProt P21731); experiment: Human thromboxane A2, TxA2, assay (SQ-29548 competition); type: binding; conditions: 10 μM concentration; HEK-293
T3 construct: expressed in transfected cells; host or cells: HEK-293
T3 sequence (P21731 1-343): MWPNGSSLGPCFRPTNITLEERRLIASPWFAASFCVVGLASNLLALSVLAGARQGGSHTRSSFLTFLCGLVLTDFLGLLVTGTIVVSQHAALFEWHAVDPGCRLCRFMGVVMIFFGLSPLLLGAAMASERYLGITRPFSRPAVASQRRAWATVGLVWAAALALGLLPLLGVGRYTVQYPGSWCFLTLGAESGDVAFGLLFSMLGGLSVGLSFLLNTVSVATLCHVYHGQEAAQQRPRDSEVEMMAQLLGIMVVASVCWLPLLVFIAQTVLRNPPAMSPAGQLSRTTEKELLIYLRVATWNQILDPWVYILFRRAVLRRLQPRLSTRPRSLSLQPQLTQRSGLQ
Method: as §1
TxA2 receptor is expressed in HEK-293 cell line. Compounds and radiolabelled competitor SQ-29548 are incubated for 30 minutes at 25° C. Level of bound SQ-29548 is measured by scintillation counting, and competition is calculated from the total amount of the bound SQ-29548. […] is an unstable lipid mediator involved in blood clotting, and immune processes.

CD1 mice = experiment: PMA induced ear oedema in CD1 mice; type: in vivo, mouse; conditions: topical, single dose of 250 or 100 μg/15 μL/ear; statistically significant vs positive control
Method: Male CD1 mice (Iffa Credo, France) weighing ˜35-40 g were randomly grouped (n=8 in vehicle treated test group, dexamethasone treated control group as well as in groups treated with compounds to be assayed). Test compounds, dexamethasone as well as vehicle (Trans-phase Delivery System, containing benzyl alcohol 10%, acetone 40% and isopropanol 50%) (all from Kemika, Croatia), were administered topically to the internal surface of the left ear thirty minutes prior to administration of phorbol 12-myristate 13-acetate (PMA) (Alexis biochemicals, USA). Test compounds were administered at a single dose of 250 or 100 μg/15 μL/ear and dexamethasone at a single dose of 50 μg/15 μL/ear. Thirty minutes later, 0.01% PMA solution in acetone was applied topically to the same area of each animal in a volume of 12 μL/ear. During the treatment and challenge, animals were anaesthetized by using inhalation anaesthesia. Six hours after the challenge, animals were euthanized by asphyxiation in 100% CO2 atmosphere. For assessing the auricular oedema, 8 mm discs were cut out of left and right auricular pinna and weighed. The degree of oedema was calculated by subtracting the weight of 8 mm disc of the untreated ear from that of the treated contralateral ear.

CysLT1 receptor = target: T4, CysLT1 receptor (Homo sapiens, UniProt Q9Y271); experiment: Human cysteinyl leukotriene receptor 1 (CysLT1) radioligand binding assay; conditions: 10 μM concentration; CHO-K1 cells
T4 construct: expressed in transfected cells; host or cells: CHO-K1
T4 sequence (Q9Y271 1-337): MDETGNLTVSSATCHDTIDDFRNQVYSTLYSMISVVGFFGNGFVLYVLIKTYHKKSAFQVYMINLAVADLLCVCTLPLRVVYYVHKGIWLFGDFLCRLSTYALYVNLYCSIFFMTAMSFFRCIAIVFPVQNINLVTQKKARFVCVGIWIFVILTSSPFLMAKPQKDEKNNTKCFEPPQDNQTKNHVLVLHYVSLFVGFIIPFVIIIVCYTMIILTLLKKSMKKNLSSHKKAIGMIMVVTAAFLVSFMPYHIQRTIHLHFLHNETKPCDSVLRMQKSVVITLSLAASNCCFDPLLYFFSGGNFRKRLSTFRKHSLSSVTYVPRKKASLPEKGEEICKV
Method: as §1
CysLT1 receptor is involved in immune diseases such as asthma, and has clinical significance as a point of intervention in asthma therapy. CysLT1 receptor is expressed in CHO-K1 cells (Chinese hamster ovary cells K1 clone). This is a competitive radioligand binding assay where substances compete with [^3H]-labeled Leulcotirene D4 (LTD4). Radioactive substance is measured with scintillation counting. Percentage of inhibition is calculated from the total radioactivity of the sample.

[1] = system: Human prostanoid receptor; experiment: Human prostanoid receptor assay ([3H]-PGD2 competition); type: binding; conditions: 10 μM concentration; CHO-K1
Method: as §1
Human prostanoid receptor is expressed in Chinese hamster ovary cell line, clone K1 (CHO-K1). Substances and radioactive competitor (tritium labelled Prostaglandin D2 in 1.7 nM concentration) are incubated with cells in HEPES buffer for 2 hours at 25° C. in the presence of manganese ions. Level of the bound PGD2 is measured by scintillation counting, and competition is calculated from comparing the total amount of the bound PGD2 in treated versus control cells. Prostanoids are involved in many physiological and pathological processes, from inflammation to pain.

IL-5 = experiment: Inhibition of IL-5 production by ConA stimulated mouse splenocytes; type: cell-based; conditions: 25 μM
Method: Spleen cell suspension was obtained from BALB/c mice and lymphocytes separated by gradient density centrifugation on Histopaque 1.083 on 400 g for 30 minutes. They were washed once in medium, counted and their number adjusted as 3×10^5/200 μL/well in 96 flat bottomed culture plate in RPMI supplemented with 10% fetal bovine serum. Cells were stimulated on cytokine production by adding concanavalinA (ConA) at 5 μg/mL final concentration. Unstimulated cells were cultured in medium alone. Stock solution was prepared out of testing compounds as 10 mM in DMSO. Final concentrations made in cell culture medium were tested when they had been added together with ConA. After 72 hours incubation period cell culture supernatants were collected. In each sample IL-4, IL-5, IL-10 and IFNγ were detected and quantified using enzyme linked immunosorbent assay (ELISA) specific for pointed cytokines (R&D Systems).
To calculate results, standard curve was made out of measured OD values for recombinant protein in known concentrations. Cytokine content in unknown samples was calculated out of OD values extrapolated from the standard curve.
Percentage of inhibition is calculated using formula:
% Inhibition=(1−cytokine concentration of sample/cytokine concentration of positive control)×100.

T2 sequence (Q14432 whole entry): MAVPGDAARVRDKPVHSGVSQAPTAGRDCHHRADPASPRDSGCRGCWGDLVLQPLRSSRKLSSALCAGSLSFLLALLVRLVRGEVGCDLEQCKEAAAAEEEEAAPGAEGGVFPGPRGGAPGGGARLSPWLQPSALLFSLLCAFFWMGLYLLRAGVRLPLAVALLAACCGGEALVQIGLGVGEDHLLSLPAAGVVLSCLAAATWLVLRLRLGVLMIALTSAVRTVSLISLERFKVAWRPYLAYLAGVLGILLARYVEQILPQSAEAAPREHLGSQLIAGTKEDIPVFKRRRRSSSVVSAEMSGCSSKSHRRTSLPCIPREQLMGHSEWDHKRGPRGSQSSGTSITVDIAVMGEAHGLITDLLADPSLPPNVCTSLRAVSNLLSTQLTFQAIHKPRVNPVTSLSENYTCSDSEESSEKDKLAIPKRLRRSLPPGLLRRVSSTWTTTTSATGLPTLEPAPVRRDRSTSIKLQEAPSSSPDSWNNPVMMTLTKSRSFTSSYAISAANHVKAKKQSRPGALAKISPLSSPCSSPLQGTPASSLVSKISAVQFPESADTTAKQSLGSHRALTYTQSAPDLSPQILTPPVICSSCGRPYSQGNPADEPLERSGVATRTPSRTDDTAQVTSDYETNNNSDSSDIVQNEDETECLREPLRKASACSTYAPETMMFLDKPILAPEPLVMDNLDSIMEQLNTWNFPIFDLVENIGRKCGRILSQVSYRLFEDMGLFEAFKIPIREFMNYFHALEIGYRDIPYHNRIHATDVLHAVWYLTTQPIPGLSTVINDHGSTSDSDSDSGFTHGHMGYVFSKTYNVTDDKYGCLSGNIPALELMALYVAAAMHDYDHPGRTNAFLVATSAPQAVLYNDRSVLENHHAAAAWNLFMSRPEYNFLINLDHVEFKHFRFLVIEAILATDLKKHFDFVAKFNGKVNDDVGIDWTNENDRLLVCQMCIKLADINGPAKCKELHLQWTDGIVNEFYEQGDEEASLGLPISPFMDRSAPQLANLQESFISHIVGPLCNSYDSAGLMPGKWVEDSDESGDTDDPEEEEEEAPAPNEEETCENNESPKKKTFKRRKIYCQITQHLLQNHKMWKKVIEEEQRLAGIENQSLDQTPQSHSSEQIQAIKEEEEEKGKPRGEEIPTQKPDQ

Question: Which results are given for `CCc1cccc2c(O)c(C(C(C)=O)c3c(O)c4cccc(CC)c4oc3=O)c(=O)oc12` [Example 17]?
Answer: inhibition of human 5-LO (human 5-LO): significantly relevant activity; inhibition of human PDE3 activity (human PDE3): significantly inhibited; inhibition of human PDE4 activity (human PDE4): significantly inhibited; TxA2 receptor, competition with SQ-29548 (TxA2 receptor): significantly relevant activity

Question: For `CC(=O)C(c1c(O)c2cc(Cl)c(C)cc2oc1=O)c1c(O)c2cc(Cl)c(C)cc2oc1=O` [Example 25], which “suppression of ear oedema” value (CD1 mice) is on record?
Answer: considered active

Question: For `CCc1ccc2oc(=O)c(C(C(C)=O)c3c(O)c4cc(CC)ccc4oc3=O)c(O)c2c1` [Example 26], which “suppression of ear oedema” value (CD1 mice) is on record?
Answer: considered active

Question: For `Cc1cc2oc(=O)c(C(CO)c3c(O)c4cc(C)c(C)cc4oc3=O)c(O)c2cc1C` [Example 28], which “suppression of ear oedema” value (CD1 mice) is on record?
Answer: considered active

Question: With `CCc1ccc2oc(=O)c(C(CO)c3c(O)c4cc(CC)ccc4oc3=O)c(O)c2c1` [Example 29] as the molecule, how does the “suppression of ear oedema” value (CD1 mice) read?
Answer: considered active

Question: `Cc1cc2oc(=O)c(C(C(=O)OCCO)c3c(O)c4cc(C)c(C)cc4oc3=O)c(O)c2cc1C` [Example 51] was tested. Which “suppression of ear oedema” value (CD1 mice) did it give?
Answer: considered active

Question: How did the “suppression of ear oedema” value (CD1 mice) turn out when `Cc1cc2oc(=O)c(C(C(=O)OCCO)c3c(O)c4cc(Cl)c(C)cc4oc3=O)c(O)c2cc1Cl` [Example 54] was run?
Answer: considered active

Question: Which “suppression of ear oedema” value (CD1 mice) does the source give for `O=c1oc2ccccc2c(O)c1C(c1cccc(Cl)c1)c1c(O)c2ccccc2oc1=O` [Example 66] here?
Answer: considered active

Question: `CCOC(=O)C(c1c(O)c2cccc(C(C)C)c2oc1=O)c1c(O)c2cccc(C(C)C)c2oc1=O` [Example 292] was tested. Which “suppression of ear oedema” value (CD1 mice) did it give?
Answer: considered active

Question: For `O=c1oc2ccccc2c(O)c1C(c1ccc2c(c1)OCO2)c1c(O)c2ccccc2oc1=O` [Example 349], which “inhibition of human 5-LO” value (human 5-LO) is on record?
Answer: significantly relevant activity

Question: What about the “CysLT1 receptor, competition with [3H]-LTD4” value (CysLT1 receptor) of the same molecule?
Answer: significantly relevant activity

Question: And the “TxA2 receptor, competition with SQ-29548” value (TxA2 receptor)?
Answer: significantly relevant activity

Question: What about the “suppression of ear oedema” value (CD1 mice) of the same molecule?
Answer: considered active

Question: With `O=c1oc2ccccc2c(O)c1C(c1cnc2ccccc2c1)c1c(O)c2ccccc2oc1=O` [Example 351] as the molecule, how does the “inhibition of human 5-LO” value (human 5-LO) read?
Answer: significantly relevant activity

Question: What about the “CysLT1 receptor, competition with [3H]-LTD4” value (CysLT1 receptor) of the same molecule?
Answer: significantly relevant activity

Question: And the “inhibition of human PDE3 activity” value (human PDE3)?
Answer: significantly inhibited

Question: And the “inhibition of human PDE4 activity” value (human PDE4)?
Answer: significantly inhibited

Question: And the “human prostanoid receptor, competition with tritium labelled PGD2” value [1]?
Answer: significantly relevant activity

Question: And the “suppression of ear oedema” value (CD1 mice)?
Answer: considered active

Question: For `CC(C)c1cccc2c(O)c(C(c3c(O)c4cccc(C(C)C)c4oc3=O)C(C)O)c(=O)oc12` (stereo not drawn) [Example 364], which “inhibition of IL-5 production” value (IL-5) is on record?
Answer: significantly inhibited

Question: And the “suppression of ear oedema” value (CD1 mice)?
Answer: considered active
